Experimental data reported in the NIST ThermoML archive (doi:10.1021/je1005517).
Numbers after ± are expanded uncertainties.

Test: activity coefficient (dimensionless); of the first substance listed, at infinite dilution; xn = mol fraction of the nth substance listed
Details: Liquid, GC, x1 = 0

SMILES | activity coefficient (338.15 K, 101 kPa) | activity coefficient (343.15 K, 101 kPa) | activity coefficient (348.15 K, 101 kPa) | activity coefficient (353.15 K, 101 kPa) | activity coefficient (333.15 K, 101 kPa) | activity coefficient (333.15 K, 101.3 kPa) | activity coefficient (338.15 K, 101.3 kPa) | activity coefficient (343.15 K, 101.3 kPa) | activity coefficient (348.15 K, 101.3 kPa) | activity coefficient (353.15 K, 101.3 kPa)
CCCCCl [1-chlorobutane] + CCCCCCCCCCCCCCCCCCCCO | 0.0991 ± 0.0059 | 0.0954 ± 0.0057 | 0.0919 ± 0.0055 | 0.0886 ± 0.0053 |  |  |  |  |  | 
CCCCCl [1-chlorobutane] + CCCCCCCCCCCCCCCCCCO | 0.036 ± 0.0022 | 0.0338 ± 0.002 | 0.0321 ± 0.0019 | 0.03 ± 0.0018 | 0.0389 ± 0.0023 |  |  |  |  | 
CCCCl [1-chloropropane] + CCCCCCCCCCCCCCCCCCCCO | 0.0779 ± 0.0047 | 0.0778 ± 0.0047 | 0.0778 ± 0.0047 | 0.0777 ± 0.0047 |  |  |  |  |  | 
CCCCl [1-chloropropane] + CCCCCCCCCCCCCCCCCCO |  |  |  |  |  | 0.0331 ± 0.002 | 0.0294 ± 0.0018 | 0.0269 ± 0.0016 | 0.0245 ± 0.0015 | 0.0225 ± 0.0014
C=CCCCCC [1-heptene] + CCCCCCCCCCCCCCCCCCCCO | 0.124 ± 0.0074 | 0.118 ± 0.0071 | 0.113 ± 0.0068 | 0.108 ± 0.0065 |  |  |  |  |  | 
C=CCCCCC [1-heptene] + CCCCCCCCCCCCCCCCCCO |  |  |  |  |  | 0.0431 ± 0.0026 | 0.0417 ± 0.0025 | 0.0407 ± 0.0024 | 0.0397 ± 0.0024 | 0.0388 ± 0.0023
C=CCCC [1-pentene] + CCCCCCCCCCCCCCCCCCCCO | 0.0813 ± 0.0049 | 0.0742 ± 0.0045 | 0.0664 ± 0.004 | 0.06 ± 0.0036 |  |  |  |  |  | 
C=CCCC [1-pentene] + CCCCCCCCCCCCCCCCCCO |  |  |  |  |  | 0.0261 ± 0.0016 | 0.0245 ± 0.0015 | 0.0234 ± 0.0014 | 0.0222 ± 0.0013 | 0.0213 ± 0.0013
CC(C)=O [acetone] + CCCCCCCCCCCCCCCCCCCCO | 0.0557 ± 0.0033 | 0.0572 ± 0.0034 | 0.0587 ± 0.0035 | 0.0602 ± 0.0036 |  |  |  |  |  | 
CC(C)=O [acetone] + CCCCCCCCCCCCCCCCCCO | 0.0179 ± 0.0011 | 0.0174 ± 0.001 | 0.017 ± 0.001 | 0.0166 ± 0.001 | 0.0185 ± 0.0011 |  |  |  |  | 
CC#N [acetonitrile] + CCCCCCCCCCCCCCCCCCCCO | 0.309 ± 0.019 | 0.265 ± 0.016 | 0.229 ± 0.014 | 0.197 ± 0.012 |  |  |  |  |  | 
CC#N [acetonitrile] + CCCCCCCCCCCCCCCCCCO | 0.0969 ± 0.0058 | 0.0901 ± 0.0054 | 0.0832 ± 0.005 | 0.0766 ± 0.0046 | 0.108 ± 0.0065 |  |  |  |  | 
CCCCO [butan-1-ol] + CCCCCCCCCCCCCCCCCCCCO | 0.431 ± 0.026 | 0.387 ± 0.023 | 0.352 ± 0.021 | 0.316 ± 0.019 |  |  |  |  |  | 
CCCCO [butan-1-ol] + CCCCCCCCCCCCCCCCCCO |  |  |  |  |  | 0.154 ± 0.0092 | 0.136 ± 0.008 | 0.121 ± 0.0073 | 0.11 ± 0.0066 | 0.0992 ± 0.006
CCCCOC(C)=O [butyl ethanoate] + CCCCCCCCCCCCCCCCCCCCO | 0.14 ± 0.0084 | 0.131 ± 0.0079 | 0.123 ± 0.0074 | 0.115 ± 0.0069 |  |  |  |  |  | 
CCCCOC(C)=O [butyl ethanoate] + CCCCCCCCCCCCCCCCCCO |  |  |  |  |  | 0.0526 ± 0.0032 | 0.0468 ± 0.0028 | 0.0428 ± 0.0026 | 0.0391 ± 0.0023 | 0.0358 ± 0.0021
C1CCCCC1 [cyclohexane] + CCCCCCCCCCCCCCCCCCCCO | 0.108 ± 0.0065 | 0.102 ± 0.0061 | 0.0969 ± 0.0058 | 0.0918 ± 0.0055 |  |  |  |  |  | 
C1CCCCC1 [cyclohexane] + CCCCCCCCCCCCCCCCCCO | 0.0337 ± 0.002 | 0.0315 ± 0.0019 | 0.0294 ± 0.0018 | 0.0274 ± 0.0016 | 0.0365 ± 0.0022 |  |  |  |  | 
ClCCl [dichloromethane] + CCCCCCCCCCCCCCCCCCCCO | 0.079 ± 0.0047 | 0.0642 ± 0.0039 | 0.0532 ± 0.0032 | 0.0435 ± 0.0026 |  |  |  |  |  | 
ClCCl [dichloromethane] + CCCCCCCCCCCCCCCCCCO |  |  |  |  |  | 0.0262 ± 0.0016 | 0.0233 ± 0.0014 | 0.0212 ± 0.0013 | 0.0194 ± 0.0012 | 0.0178 ± 0.0011
CCOCC [diethyl ether] + CCCCCCCCCCCCCCCCCCCCO | 0.0652 ± 0.0039 | 0.0624 ± 0.0037 | 0.0598 ± 0.0036 | 0.0572 ± 0.0034 |  |  |  |  |  | 
CCOCC [diethyl ether] + CCCCCCCCCCCCCCCCCCO | 0.0235 ± 0.0014 | 0.0219 ± 0.0013 | 0.0204 ± 0.0012 | 0.019 ± 0.001 | 0.0257 ± 0.0015 |  |  |  |  | 
